# From patent publication US9364459B2, “3-(indolyl)- or 3-(azaindolyl)- 4-arylmaleimide derivatives for use in the treatment of colon and gastric adenocarcinoma” (Johannes Gutenberg-Universität Mainz, priority 2009, dated 2016)
# Experiments:
# Caco-2 = assay: Nicoletti apoptosis assay in Caco-2 cells; format: cell-based, human
# Description: (§1) Nicoletti Apoptosis Assay by Cell Cycle Analysis
# (§2) Cancer cells were transferred to 12-well flat-bottomed plates. […] Subsequently, cells were incubated in 1 ml medium containing various concentrations of test compounds at 37° C. with 5% CO2. After incubation the cells were washed with PBS, trypsinized, pelleted and mixed with PI buffer (containing 0.1% sodium citrate, 0.1% triton X-100, […] propidium iodide (PI)) and incubated for 1 hour at 4° C. Cell cycle sub-G1 fraction analysis was performed as described previously (Nicoletti, I. et al. (1991) J. Immunol. Methods 139, 271-279) using a flow cytometer (BD FACS Calibur™, BD Biosciences, Heidelberg, Germany). Each experiment was done in triplicate.
# GSK-3β = GSK-3β (Homo sapiens (Human), UniProt P49841); assay: GSK-3β kinase inhibition assay (Millipore IC50Profiler); format: biochemical
# From the text: (§3) GSK-3β, VEGFR-2, FLT-3 Kinase Inhibition Assays
# (§4) Detailed protocols can be found at: www.millipore.com/drugdiscovery/dd3/assayprotocols.
# HUVEC = assay: Nicoletti apoptosis assay (sub-G1 fraction) in HUVEC; format: cell-based, human; settings: 4 days, untreated 15.4 ± 1.5%
# Description: as §1, §2
# The same analysis was performed with HUVEC cells. 1.5×10^4 cells were plated into each well and treated with test compounds for 4 days.
# Human Umbilical Vein Endothelial Cells (HUVEC) known for mitogenic specifity for VEGF were obtained from the Department of Pathology, University Hospital of Mainz, Germany. The cells were cultured in M199 supplemented with 20% FCS, 1% Pen/Strep, 0.34% GlutaMAX-I, 25 μg/ml Endothelial Cell Growth Supplement (BD Biosciences), 25 μg/ml Heparin sodium (179 USP units/mg; Sigma, Germany) and were maintained at 37° C. and 5% CO2.
# MKN-45 = assay: Nicoletti apoptosis assay in MKN-45 cells; format: cell-based, human
# Description: as §1, §2
# [1] = test system: chick embryo microvessel formation; assay: Quantitative chick embryo in vivo assay of antiangiogenic activity; settings: Gallus gallus; 26 nM drug concentration/pellet; 24 hours incubation; read-out: Inhibition of microvessel area
# Description: Evaluation of Antiangiogenic Activity in a Quantitative Chick Embryo In Vivo Assay
# The inhibition of angiogenesis (new blood vessel formation) was measured as described in WO2006/061212.
# [2] = test system: HT-29 human colon adenocarcinoma cells; assay: MTT viability assay in HT-29 cells; settings: HT-29, 72 h, read-out: Viability of HT-29 cells as determined by MTT assay
# Description: Evaluation of Effect on Viability (MTT Assay)
# The antiproliferative activity of test compounds was determined by the 3-(4,5-dimethylthiazol-2-yl)-2,5-diphenyltetrazolium bromide (MTT) assay as described previously (Mosmann, T. et al. (1983) J. Immunol. Methods 65, 55-63). Cells in the exponential growth phase were transferred to 96-well flat-bottom plates. 10,000 viable cells contained in 200 μl cell suspension were plated into each well and incubated over night. Cells were then exposed to various concentrations of test compounds (100 μl/well) for 3 days at 37° C. with 5% CO2. Subsequently, 10 μl/well MTT stock solution (5 mg/ml; Biomol, Germany) was added and the cells were incubated at 37° C. with 5% CO2 for 4 hours. 100 μl solubilization solution (10% SDS in 0.01 M HCl) was added and the cells were incubated at 37° C. with 5% CO2 over night. Plates were read on an ELISA-Reader ELX 800 (BIO-TEK Software KC 4) at 562 nm absorbance. Each experiment was done in triplicate.
# HCT-116, HT-29 and SW480 cells were cultured in RPMI1640 supplemented with 10% FCS. […] All cells were maintained at 37° C. and 5% CO2.
# HCT-116 = assay: Nicoletti apoptosis assay in HCT-116 cells; format: cell-based, human
# Description: as §1, §2
# FLT-3 = FLT-3 (Homo sapiens (Human), UniProt P36888); assay: FLT-3 kinase inhibition assay (Millipore IC50Profiler); format: biochemical
# Description: as §3
# The effect of test compounds on the activity of the protein kinases GSK-3β, VEGFR-2 and FLT-3 was evaluated based on half maximal inhibitory concentration (IC50) values determined by Millipore UK Ltd; Gemini Crescent; Dundee Technology Park; Dundee DD2 1SW; UK (IC50Profiler). Detailed protocols can be found at: www.millipore.com/drugdiscovery/dd3/assayprotocols.
# SW480 = assay: Nicoletti apoptosis assay in SW480 cells; format: cell-based, human
# Description: as §1, §2
# VEGFR-2 = VEGFR-2 (Homo sapiens (Human), UniProt P35968); assay: VEGFR-2 kinase inhibition assay (Millipore IC50Profiler); format: biochemical
# From the text: as §3, §4
# HT-29 = assay: Nicoletti apoptosis assay in HT-29 cells; format: cell-based, human
# Description: as §1, §2
# [3] = Table 6, 7.9 μM comp. A plus 1.18 μM irinotecan
# [4] = Table 6, 7.9 μM compound A alone
# [5] = Table 7, 7.9 μM compound A alone
# [6] = Table 7, 7.9 μM compound A plus 20 nM topotecan
# [7] = Table 8, HT-29, 7.9 μM test compound alone, drug-free control 3.4 ± 0.9%
# [8] = Table 8, HT-29, 7.9 μM test compound plus 1.18 μM irinotecan
# [9] = Table 6, 1.18 μM irinotecan alone
# Sequence of VEGFR-2 (P35968 20-1356): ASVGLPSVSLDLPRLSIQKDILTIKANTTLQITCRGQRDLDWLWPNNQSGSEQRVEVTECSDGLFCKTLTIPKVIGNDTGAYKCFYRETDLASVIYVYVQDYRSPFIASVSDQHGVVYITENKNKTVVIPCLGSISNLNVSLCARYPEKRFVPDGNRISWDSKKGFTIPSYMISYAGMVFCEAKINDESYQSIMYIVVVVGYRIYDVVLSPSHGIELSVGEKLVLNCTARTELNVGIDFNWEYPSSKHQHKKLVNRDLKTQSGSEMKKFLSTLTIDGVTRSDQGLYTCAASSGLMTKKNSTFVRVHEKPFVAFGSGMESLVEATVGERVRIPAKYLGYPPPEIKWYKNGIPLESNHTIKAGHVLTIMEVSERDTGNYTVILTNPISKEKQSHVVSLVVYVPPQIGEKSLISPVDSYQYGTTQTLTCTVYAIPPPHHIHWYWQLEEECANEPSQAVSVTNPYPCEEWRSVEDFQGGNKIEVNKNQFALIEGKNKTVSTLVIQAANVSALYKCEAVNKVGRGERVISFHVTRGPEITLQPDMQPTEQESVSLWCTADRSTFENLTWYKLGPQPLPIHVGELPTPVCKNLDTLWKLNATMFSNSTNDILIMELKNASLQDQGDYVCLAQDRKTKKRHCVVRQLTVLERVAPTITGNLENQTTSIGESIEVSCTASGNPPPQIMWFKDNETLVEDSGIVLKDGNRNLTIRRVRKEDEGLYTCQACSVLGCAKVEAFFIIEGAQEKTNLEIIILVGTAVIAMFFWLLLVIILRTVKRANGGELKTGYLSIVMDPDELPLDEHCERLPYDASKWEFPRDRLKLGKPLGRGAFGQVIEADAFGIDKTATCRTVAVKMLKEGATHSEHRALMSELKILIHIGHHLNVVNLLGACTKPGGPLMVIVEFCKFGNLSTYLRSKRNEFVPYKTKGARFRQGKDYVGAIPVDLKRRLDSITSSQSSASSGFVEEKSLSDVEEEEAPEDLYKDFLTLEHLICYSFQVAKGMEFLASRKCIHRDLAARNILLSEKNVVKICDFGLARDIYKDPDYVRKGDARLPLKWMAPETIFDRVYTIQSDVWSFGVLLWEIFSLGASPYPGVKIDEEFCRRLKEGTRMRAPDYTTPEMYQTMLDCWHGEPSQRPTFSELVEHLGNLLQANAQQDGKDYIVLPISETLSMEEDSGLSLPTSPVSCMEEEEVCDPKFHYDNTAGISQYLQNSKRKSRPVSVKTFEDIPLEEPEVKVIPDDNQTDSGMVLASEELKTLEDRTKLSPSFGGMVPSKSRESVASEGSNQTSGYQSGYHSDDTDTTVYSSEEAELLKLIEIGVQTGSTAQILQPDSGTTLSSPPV
# Sequence of FLT-3 (P36888 27-993): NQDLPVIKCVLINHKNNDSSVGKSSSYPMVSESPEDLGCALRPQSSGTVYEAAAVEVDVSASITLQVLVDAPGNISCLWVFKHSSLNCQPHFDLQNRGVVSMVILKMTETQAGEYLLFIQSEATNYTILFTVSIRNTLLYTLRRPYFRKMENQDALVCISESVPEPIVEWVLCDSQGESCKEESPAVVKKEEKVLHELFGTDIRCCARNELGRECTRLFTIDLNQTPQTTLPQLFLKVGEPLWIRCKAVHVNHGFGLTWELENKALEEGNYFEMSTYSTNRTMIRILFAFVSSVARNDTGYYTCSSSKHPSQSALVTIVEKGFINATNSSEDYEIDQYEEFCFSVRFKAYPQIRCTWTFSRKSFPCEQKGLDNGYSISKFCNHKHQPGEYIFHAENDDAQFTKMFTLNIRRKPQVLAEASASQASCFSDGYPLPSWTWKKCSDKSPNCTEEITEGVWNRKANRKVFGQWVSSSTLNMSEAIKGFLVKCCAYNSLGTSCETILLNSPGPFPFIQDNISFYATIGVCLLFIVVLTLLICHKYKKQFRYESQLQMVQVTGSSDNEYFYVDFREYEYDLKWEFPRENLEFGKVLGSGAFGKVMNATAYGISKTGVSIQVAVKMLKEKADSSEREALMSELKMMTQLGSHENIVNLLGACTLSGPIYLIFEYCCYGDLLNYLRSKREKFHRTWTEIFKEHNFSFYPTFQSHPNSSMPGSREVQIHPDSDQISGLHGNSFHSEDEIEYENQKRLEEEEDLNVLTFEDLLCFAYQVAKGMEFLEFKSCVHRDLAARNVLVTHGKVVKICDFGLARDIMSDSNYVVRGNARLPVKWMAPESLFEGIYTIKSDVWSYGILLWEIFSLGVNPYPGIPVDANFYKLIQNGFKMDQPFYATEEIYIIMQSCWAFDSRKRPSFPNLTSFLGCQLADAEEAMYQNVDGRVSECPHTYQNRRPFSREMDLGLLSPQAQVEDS
# Sequence of GSK-3β (P49841 whole entry): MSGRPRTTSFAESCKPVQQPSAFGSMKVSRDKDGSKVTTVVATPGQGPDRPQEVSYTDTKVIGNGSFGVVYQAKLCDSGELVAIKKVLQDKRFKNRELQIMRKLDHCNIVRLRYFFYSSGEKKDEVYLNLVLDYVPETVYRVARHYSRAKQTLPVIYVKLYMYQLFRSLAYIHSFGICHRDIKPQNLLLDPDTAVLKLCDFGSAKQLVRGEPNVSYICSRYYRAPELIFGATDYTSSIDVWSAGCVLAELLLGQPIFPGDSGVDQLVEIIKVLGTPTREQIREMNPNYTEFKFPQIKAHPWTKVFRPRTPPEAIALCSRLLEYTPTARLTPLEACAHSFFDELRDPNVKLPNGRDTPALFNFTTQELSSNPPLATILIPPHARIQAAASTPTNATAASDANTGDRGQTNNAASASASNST
smiles,measurement,setting,value
"COc1cc(C2=C(c3c[nH]c4ccccc34)C(=O)NC2=O)cc(OC)c1OC [A, 3-(1H-indol-3-yl)-4-(3,4,5-trimethoxyphenyl)-maleinimid]","Combined effect of compound A and low dosed irinotecan on apoptosis, in words",Caco-2,Significant synergistic effects
same,Sub-G1 Fraction,Caco-2; [3],43.70 ± 2.2%
same,Sub-G1 Fraction,Caco-2; [4],6.00 ± 2.3%
same,Sub-G1 Fraction,Caco-2; [5],5.9 ± 0.6%
same,Sub-G1 Fraction,Caco-2; [6],52.07 ± 2.84%
same,IC50,GSK-3β,1100 nM
same,Sub-G1 Fraction,HUVEC; 0.79 μM,25. ± 0.9%
same,Sub-G1 Fraction,HUVEC; 2.6 μM,87.7 ± 2.3%
same,Sub-G1 Fraction,HUVEC; 7.9 μM,88.9 ± 4.0%
same,Sub-G1 Fraction,MKN-45; [3],51.44 ± 0.2%
same,Sub-G1 Fraction,MKN-45; [4],20.16 ± 1.6%
same,Sub-G1 Fraction,MKN-45; [5],20.2 ± 1.6%
same,Sub-G1 Fraction,MKN-45; [6],61.1 ± 1.2%
same,inhibition at 0.026 µM,[1],82%
same,viability at 2.6 µM,[2],78.5 ± 3.7%
same,viability at 7.9 µM,[2],62.9 ± 1.5%
same,viability at 26 µM,[2],53.9 ± 4.8%
same,viability at 52 µM,[2],42.8 ± 1.6%
same,"Combined effect of compound A and low dosed irinotecan on apoptosis, in words",HCT-116,Significant synergistic effects
same,Sub-G1 Fraction,HCT-116; [3],27.90 ± 3.4%
same,Sub-G1 Fraction,HCT-116; [4],3.70 ± 2.8%
same,IC50,FLT-3,166 nM
same,"FLT-3 inhibition, in words",FLT-3; Table 2,most significantly inhibited
same,"Combined effect of compound A and low dosed irinotecan on apoptosis, in words",SW480,Significant synergistic effects
same,Sub-G1 Fraction,SW480; [3],32.21 ± 0.40%
same,Sub-G1 Fraction,SW480; [4],9.96 ± 2.3%
same,Sub-G1 Fraction,SW480; [5],10 ± 2.3%
same,Sub-G1 Fraction,SW480; [6],38.81 ± 0.88%
same,IC50,VEGFR-2,90 nM
same,"VEGFR-2 IC50 values, in words",VEGFR-2; Table 2,low nanomolar range
same,"Combined effect of compound A and low dosed irinotecan on apoptosis, in words",HT-29; HT-29,Significant synergistic effects
same,"Combined effect of compound A and topotecan on apoptosis, in words",HT-29; HT-29,synergistically inhibited apoptosis
same,"Induction of apoptosis in combination with irinotecan compared with vandetanib or sunitinib, in words","HT-29; HT-29, 7 days combination treatment with irinotecan",greater induction of apoptosis
same,Sub-G1 Fraction,"HT-29; Table 6, HT-29, 7.9 μM comp. A plus 1.18 μM irinotecan",57.40 ± 1.6%
same,Sub-G1 Fraction,"HT-29; Table 6, HT-29, 7.9 μM compound A alone",5.90 ± 0.6%
same,Sub-G1 Fraction,"HT-29; Table 7, HT-29, 7.9 μM compound A alone",5.9 ± 0.6%
same,Sub-G1 Fraction,"HT-29; Table 7, HT-29, 7.9 μM compound A plus 20 nM topotecan",65.6 ± 1.8%
same,Sub-G1 Fraction,HT-29; [7],4.70 ± 0.50%
same,Sub-G1 Fraction,HT-29; [8],53.10 ± 3.30%
same,Sub-G1 Fraction,"HT-29; Table 9, HT-29, 7.9 μM compound A plus 1.18 μM Irinotecan, 7 days",49.8 ± 1.30%
same,Sub-G1 Fraction,"HT-29; Table 9, HT-29, single-agent treatment, 7.9 μM compound A, 7 days",8.9 ± 0.8%
"COc1cc(C2=C(c3c[nH]c4ccc(F)cc34)C(=O)NC2=O)cc(OC)c1OC [O, 3-(5-Fluoro-1H-indol-3-yl)-4-(3,4,5-trimethoxyphenyl)-maleinimide]",melting point,,232 to 233 °C
same,Sub-G1 Fraction,HUVEC; 0.79 μM,16.0 ± 1.2%
same,Sub-G1 Fraction,HUVEC; 2.6 μM,73.3 ± 3.2%
same,Sub-G1 Fraction,HUVEC; 7.9 μM,90.6 ± 5.4%
same,inhibition at 0.026 µM,[1],63%
same,viability at 2.6 µM,[2],47.83 ± 0.34%
same,viability at 7.9 µM,[2],35.5 ± 0.71%
same,viability at 26 µM,[2],42.1 ± 0.58%
same,viability at 52 µM,[2],17.6 ± 1.81%
same,IC50,VEGFR-2,182 nM
same,"Activity in combination with irinotecan relative to compound A, in words","HT-29; HT-29 cells, combination with irinotecan",at least comparable with compound A
same,Sub-G1 Fraction,HT-29; [7],3.26 ± 2.14%
same,Sub-G1 Fraction,HT-29; [8],49.69 ± 2.96%
"CCc1c2c(nc3ccc(OC(=O)N4CCC(N5CCCCC5)CC4)cc13)-c1cc3c(c(=O)n1C2)COC(=O)[C@]3(O)CC [irinotecan, reference compound]",Sub-G1 Fraction,Caco-2; [9],18.80 ± 0.8%
same,Sub-G1 Fraction,MKN-45; [9],28.97 ± 1.15%
same,Sub-G1 Fraction,HCT-116; [9],9.86 ± 2.4%
same,Sub-G1 Fraction,SW480; [9],9.61 ± 0.91%
same,Sub-G1 Fraction,"HT-29; Table 6, HT-29, 1.18 μM irinotecan alone",17.40 ± 0.98%
same,Induction of apoptosis under irinotecan single application (Sub-G1 Fraction),"HT-29; Table 8, HT-29",Induction of apoptosis under irinotecan single application 18.3 ± 1.1%
same,Induction of apoptosis under irinotecan single application (Sub-G1 Fraction),"HT-29; Table 9, HT-29",Induction of apoptosis under irinotecan single application 17.4 ± 0.6%
"CC[C@@]1(O)C(=O)OCc2c1cc1n(c2=O)Cc2cc3c(CN(C)C)c(O)ccc3nc2-1 [topotecan, reference compound]",Sub-G1 Fraction,"Caco-2; Table 7, 20 nM topotecan alone",31.5 ± 0.08%
same,Sub-G1 Fraction,"MKN-45; Table 7, 20 nM topotecan alone",26.15 ± 0.49%
same,Sub-G1 Fraction,"SW480; Table 7, 20 nM topotecan alone",13.34 ± 0.3%
same,Sub-G1 Fraction,"HT-29; Table 7, HT-29, 20 nM topotecan alone",7.9 ± 0.8%
